Test results from PubChem BioAssay AID671 (University of Pittsburgh Molecular Library Screening Center, 2007).

Molecular target: M-phase inducer phosphatase 2 (Homo sapiens) (UniProt P30305)
Assay: Cdc25B catalytic domain phosphatase inhibitors, dose response, biochemical, with glutathione, probe assessment (AID 671)
Conditions: recombinant Cdc25B catalytic domain, phosphatase activity; for inhibition: measured here: inhibition at top dose 50 uM, at 50 µM, stronger effect = higher value

Chain of M-phase inducer phosphatase 2 (Homo sapiens) (P30305 whole entry, looked up, the tested form may be a part): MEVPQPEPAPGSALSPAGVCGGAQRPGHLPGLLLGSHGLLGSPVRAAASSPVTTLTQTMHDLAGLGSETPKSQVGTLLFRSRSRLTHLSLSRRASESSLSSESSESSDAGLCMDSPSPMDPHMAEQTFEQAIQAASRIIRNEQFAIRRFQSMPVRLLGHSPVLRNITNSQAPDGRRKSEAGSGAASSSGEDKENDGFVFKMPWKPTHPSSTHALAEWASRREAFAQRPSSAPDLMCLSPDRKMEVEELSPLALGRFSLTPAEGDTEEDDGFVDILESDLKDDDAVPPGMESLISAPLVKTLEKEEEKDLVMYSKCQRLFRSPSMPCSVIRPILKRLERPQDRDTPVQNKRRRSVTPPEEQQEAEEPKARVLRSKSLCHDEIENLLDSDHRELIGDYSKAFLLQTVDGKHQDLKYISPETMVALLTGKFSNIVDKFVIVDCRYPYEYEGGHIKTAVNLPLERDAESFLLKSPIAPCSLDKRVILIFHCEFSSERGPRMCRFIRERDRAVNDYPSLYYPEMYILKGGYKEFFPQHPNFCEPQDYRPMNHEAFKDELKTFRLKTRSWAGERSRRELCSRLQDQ

Compound	inhibition	IC50
Cc1c(N=c2c(=O)c3ccccc3c2=O)c(=O)n(-c2ccccc2)n1C	30.4%	–
O=C1Cc2ccccc2C(=O)N1CCc1ccccc1	7.6%	–
CCOc1ccc2noc3c2c1C(=O)c1ccccc1-3	30.7%	–
COc1ccc2noc3c2c1C(=O)c1ccccc1-3	16.7%	–
O=C(OC1CCCCC1)c1ccc2c(c1)C1C=CCC1C(C(=O)O)N2 (stereo not drawn)	90.2%	–
CCn1nc(-c2ccccc2)nc2c(=O)n(C)c(=O)nc1-2	34.5%	–
[O-]/[N+](=C\c1ccncc1)c1ccccc1	4.4%	–
CCn1nc(-c2cccs2)nc2c(=O)n(C)c(=O)nc1-2	41.5%	–
O=c1[nH]c(Nc2ccccc2)cc2ccccc12	48.6%	–
COc1cccc2c(C)c(C(=O)O)[nH]c12	85.7%	–
Nc1cccc2cnccc12	-3.3%	–
N#Cc1c(N2CCCC2)nc(N)c2c(N)nc(N3CCCC3)cc12	-13.3%	–
O=C(NC1(O)C(=O)c2ccccc2C1=O)c1ccccc1	36%	–
COc1cccc2c1NC(C(=O)O)C1CC=CC21 (stereo not drawn)	85%	–
N#Cc1c(N)sc(=S)c2c1CCN(Cc1ccccc1)C2	51%	–
[O-]/[N+](=C\c1ccc(OC(F)F)cc1)c1ccccc1	8.3%	–
CC(=O)Nc1cc(OC(C)=O)c2nonc2c1OC(C)=O	28.7%	–
O=C1C=Cc2ccccc2C1=O	78.6%	–
O=C(O)C1Nc2c(O)cccc2C2C=CCC12 (stereo not drawn)	94.8%	–
Cc1ccc2c(c1)C1C=CCC1C(C(=O)O)N2 (stereo not drawn)	88.9%	5.89 µM
Cn1ncnc2c(=O)n(C)c(=O)nc1-2	63%	–
c1ccc(CSc2nnc(-c3ccco3)c(-c3ccco3)n2)cc1	84.7%	–
O=C(Nc1ccc2nc(-c3ccco3)c(-c3ccco3)nc2c1)N1CCCCCC1	85.5%	–
CCOC(=O)C(C(=O)OCC)c1cc(Br)c2noc3c2c1C(=O)c1ccccc1-3	36.5%	–
Cc1ccccc1Nc1cc2ccccc2c(=O)[nH]1	40.3%	–
COc1ccc(Br)cc1/C=c1\sc2nc(-c3ccco3)nn2c1=O	91.7%	–
Cc1ccc2c(c1C)NC(C(=O)O)C1CC=CC21 (stereo not drawn)	89.9%	–
